We go through three substances from patent US6908897B2, “Covalently bridged insulin dimers” (Aventis Pharma Deutschland GmbH, priority 1999, dated 2005).

For assay [1], the target named is T1, insulin receptors (Homo sapiens, UniProt P06213).
T1 construct: endogenous in cells; host or cells: IM-9 lymphocytes
The assay can be described thus: Receptor binding by displacement studies on IM-9 lymphocytes. Conditions: compared with native insulin.
Protocol: (§1) The receptor binding was determined by displacement studies on IM-9 lymphocytes. The relative biological activity was determined on cultivated 3T3-L1 adipocytes in the form of the glucose transport.

Assay [2] concerns 3T3-L1 adipocytes. The assay can be described thus: Relative biological activity as glucose transport in cultivated 3T3-L1 adipocytes. Conditions: compared with native insulin. Type of assay: cell-based.
Protocol: as §1
For assay [3] the following is noted: literature value; cited from earlier work.

T1 sequence (P06213 28-758 limits assumed): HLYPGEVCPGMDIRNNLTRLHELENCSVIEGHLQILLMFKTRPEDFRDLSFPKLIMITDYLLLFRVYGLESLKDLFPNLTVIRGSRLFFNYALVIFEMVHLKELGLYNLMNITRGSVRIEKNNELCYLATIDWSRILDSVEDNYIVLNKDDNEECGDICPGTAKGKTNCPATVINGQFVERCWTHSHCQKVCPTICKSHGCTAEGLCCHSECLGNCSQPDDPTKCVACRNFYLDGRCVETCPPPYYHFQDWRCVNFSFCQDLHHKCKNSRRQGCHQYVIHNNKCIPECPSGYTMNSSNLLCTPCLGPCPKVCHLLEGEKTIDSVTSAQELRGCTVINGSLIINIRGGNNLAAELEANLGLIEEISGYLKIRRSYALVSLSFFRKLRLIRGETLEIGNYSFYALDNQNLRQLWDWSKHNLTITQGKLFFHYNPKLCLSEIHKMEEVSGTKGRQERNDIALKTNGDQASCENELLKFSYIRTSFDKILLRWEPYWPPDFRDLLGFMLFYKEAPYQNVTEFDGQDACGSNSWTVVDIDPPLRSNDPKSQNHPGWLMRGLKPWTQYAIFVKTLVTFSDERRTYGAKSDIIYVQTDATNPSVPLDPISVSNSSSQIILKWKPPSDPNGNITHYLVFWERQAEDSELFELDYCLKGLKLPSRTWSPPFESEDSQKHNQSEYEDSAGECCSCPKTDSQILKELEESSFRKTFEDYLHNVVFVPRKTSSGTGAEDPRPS
T1 sequence (P06213 763-1382 partner limits assumed): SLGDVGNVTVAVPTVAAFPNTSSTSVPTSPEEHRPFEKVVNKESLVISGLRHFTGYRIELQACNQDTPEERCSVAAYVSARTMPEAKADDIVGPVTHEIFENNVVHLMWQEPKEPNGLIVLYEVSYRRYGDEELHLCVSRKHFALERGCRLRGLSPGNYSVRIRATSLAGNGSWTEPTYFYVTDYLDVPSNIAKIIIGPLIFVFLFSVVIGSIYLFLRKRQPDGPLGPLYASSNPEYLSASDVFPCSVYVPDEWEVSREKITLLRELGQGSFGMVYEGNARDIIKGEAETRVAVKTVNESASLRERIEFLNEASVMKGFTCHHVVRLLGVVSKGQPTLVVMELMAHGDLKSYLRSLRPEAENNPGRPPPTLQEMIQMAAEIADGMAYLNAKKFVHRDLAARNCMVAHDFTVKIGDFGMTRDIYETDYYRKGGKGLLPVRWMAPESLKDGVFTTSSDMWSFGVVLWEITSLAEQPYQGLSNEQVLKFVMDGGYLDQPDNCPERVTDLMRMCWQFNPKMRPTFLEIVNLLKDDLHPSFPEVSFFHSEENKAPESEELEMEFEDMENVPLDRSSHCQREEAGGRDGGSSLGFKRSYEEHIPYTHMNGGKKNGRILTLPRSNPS

“B1,B1′-Sub-[Glu^B26}-des-(B27-B30)-insulin-B26-amide Insulin Dimer” showed a Rel. receptor binding in assay [1] of 176 ± 45.8%. The Rel. biol. activity in assay [2] is on record as 817.5 ± 224%. As to “B1,B1′-Sub-[Sar^B26]-des-(B27-B30)-insulin-B26-amide Insulin Dimer”, the Rel. receptor binding in assay [1] stood at 412 ± 94.8%. The Rel. biol. activity in assay [2] came to 1957 ± 575%. In the case of B1,B1′-suberoyl-insulin dimer, in assay [3], the bioactivity in vitro is given as 28.8%.
